# Assay results taken from publication PMC10818749, “Toxicity Studies of Cardiac-Targeting Peptide Reveal a Robust Safety Profile” (Pharmaceutics, 2024).
# Entries after “also recorded” stand apart in the source; their conditions may differ. Ends that are not written are not given here.
# What was measured:
# seven ion channels = assay: Eurofins Ion Channel Cardiac Profiler Panel (all seven channels); format: cell-based, human; conditions: CTP 0.1 to 30 µM
# OPRM1 = OPRM1 (Homo sapiens, UniProt P35372); assay: OPRM1 GPCR cAMP modulation assay; format: cell-based
# Chain of OPRM1 (P35372 whole entry): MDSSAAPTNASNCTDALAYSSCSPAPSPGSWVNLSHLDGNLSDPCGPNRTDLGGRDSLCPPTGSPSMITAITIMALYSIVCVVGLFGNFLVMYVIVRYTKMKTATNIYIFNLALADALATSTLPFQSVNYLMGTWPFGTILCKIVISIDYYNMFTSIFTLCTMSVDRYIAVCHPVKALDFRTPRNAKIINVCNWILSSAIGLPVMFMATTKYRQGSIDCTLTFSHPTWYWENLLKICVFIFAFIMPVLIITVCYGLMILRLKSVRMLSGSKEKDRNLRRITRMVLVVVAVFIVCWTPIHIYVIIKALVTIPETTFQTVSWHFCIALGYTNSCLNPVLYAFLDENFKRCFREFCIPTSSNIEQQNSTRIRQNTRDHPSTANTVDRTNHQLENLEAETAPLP
# Method: GPCR cAMP Modulation Assays: cAMP Hunter cell lines were grown, plated, and subjected to Eurofins’ DiscoverX HitHunter cAMP XS+ assay. Gs agonist activity, Gi agonist activity, and antagonist activity-induced assays were read using chemiluminescent signal detection. The percentage of activity was calculated for Gs and Gi agonist assays, and the percentage of inhibition was calculated for Gs antagonist assays. […]
# cAMP Second ary Messenger Assay pound results in the release of calcium from intracellular stores and DiscoverX has developed a panel of cell lines stably expressing non- an increase in dye fluorescence that is measured in real-time. tagged GPCRs that endogenously signal through cAMP. […]
# The enzyme is split into two complementary portions: Enzyme Ac-ceptor (EA) and Enzyme Donor (ED). […] Active enzyme can then convert a chemilumines-cent substrate, generating an output signal detectable on a standard The NHR is tagged with the ProLink™ (PK) component of our EFC microplate reader. assay system, and the SRCP domain is fused to the Enzyme Ac-ceptor component (EA) expressed in the nucleus. […]
# B6-wildtype mice = assay: Blood pressure pre- and post-CTP injection; format: in vivo, mouse; conditions: CTP 10 mg/Kg i.v.; 6 h post-injection vs pre-injection; six mice, isoflurane
# Method: Blood Pressure Pre- and Post-CTP Injection: Six B6-wildtype mice were obtained from the Jackson Laboratory. Blood pressure was taken using a non-invasive blood pressure system from Kent Scientific. Mice were anesthetized using 2.5% isoflurane exposure for 5 min, placed in a tube holder, and warmed using a warming blanket for approximately 15 min before their tails were fitted with blood pressure cuffs. A total of 21 blood pressure readings were taken, and average systolic and diastolic blood pressure calculated. After baseline blood pressure was established, mice were injected intravenously with 10 mg/Kg of CTP, and blood pressure was measured again 6 h post-injection.
# HEK-Nav1.5 (Peak) = HEK-Nav1.5 (Peak) (Homo sapiens, UniProt Q14524); assay: hNav1.5 (Peak) Sodium Channel Assay - Qube APC; conditions: CTP 0.1 to 30 µM; HEK cells; peak current, step to -15mV; 0.1% Pluronic F-68
# Chain of HEK-Nav1.5 (Peak) (Q14524 whole entry): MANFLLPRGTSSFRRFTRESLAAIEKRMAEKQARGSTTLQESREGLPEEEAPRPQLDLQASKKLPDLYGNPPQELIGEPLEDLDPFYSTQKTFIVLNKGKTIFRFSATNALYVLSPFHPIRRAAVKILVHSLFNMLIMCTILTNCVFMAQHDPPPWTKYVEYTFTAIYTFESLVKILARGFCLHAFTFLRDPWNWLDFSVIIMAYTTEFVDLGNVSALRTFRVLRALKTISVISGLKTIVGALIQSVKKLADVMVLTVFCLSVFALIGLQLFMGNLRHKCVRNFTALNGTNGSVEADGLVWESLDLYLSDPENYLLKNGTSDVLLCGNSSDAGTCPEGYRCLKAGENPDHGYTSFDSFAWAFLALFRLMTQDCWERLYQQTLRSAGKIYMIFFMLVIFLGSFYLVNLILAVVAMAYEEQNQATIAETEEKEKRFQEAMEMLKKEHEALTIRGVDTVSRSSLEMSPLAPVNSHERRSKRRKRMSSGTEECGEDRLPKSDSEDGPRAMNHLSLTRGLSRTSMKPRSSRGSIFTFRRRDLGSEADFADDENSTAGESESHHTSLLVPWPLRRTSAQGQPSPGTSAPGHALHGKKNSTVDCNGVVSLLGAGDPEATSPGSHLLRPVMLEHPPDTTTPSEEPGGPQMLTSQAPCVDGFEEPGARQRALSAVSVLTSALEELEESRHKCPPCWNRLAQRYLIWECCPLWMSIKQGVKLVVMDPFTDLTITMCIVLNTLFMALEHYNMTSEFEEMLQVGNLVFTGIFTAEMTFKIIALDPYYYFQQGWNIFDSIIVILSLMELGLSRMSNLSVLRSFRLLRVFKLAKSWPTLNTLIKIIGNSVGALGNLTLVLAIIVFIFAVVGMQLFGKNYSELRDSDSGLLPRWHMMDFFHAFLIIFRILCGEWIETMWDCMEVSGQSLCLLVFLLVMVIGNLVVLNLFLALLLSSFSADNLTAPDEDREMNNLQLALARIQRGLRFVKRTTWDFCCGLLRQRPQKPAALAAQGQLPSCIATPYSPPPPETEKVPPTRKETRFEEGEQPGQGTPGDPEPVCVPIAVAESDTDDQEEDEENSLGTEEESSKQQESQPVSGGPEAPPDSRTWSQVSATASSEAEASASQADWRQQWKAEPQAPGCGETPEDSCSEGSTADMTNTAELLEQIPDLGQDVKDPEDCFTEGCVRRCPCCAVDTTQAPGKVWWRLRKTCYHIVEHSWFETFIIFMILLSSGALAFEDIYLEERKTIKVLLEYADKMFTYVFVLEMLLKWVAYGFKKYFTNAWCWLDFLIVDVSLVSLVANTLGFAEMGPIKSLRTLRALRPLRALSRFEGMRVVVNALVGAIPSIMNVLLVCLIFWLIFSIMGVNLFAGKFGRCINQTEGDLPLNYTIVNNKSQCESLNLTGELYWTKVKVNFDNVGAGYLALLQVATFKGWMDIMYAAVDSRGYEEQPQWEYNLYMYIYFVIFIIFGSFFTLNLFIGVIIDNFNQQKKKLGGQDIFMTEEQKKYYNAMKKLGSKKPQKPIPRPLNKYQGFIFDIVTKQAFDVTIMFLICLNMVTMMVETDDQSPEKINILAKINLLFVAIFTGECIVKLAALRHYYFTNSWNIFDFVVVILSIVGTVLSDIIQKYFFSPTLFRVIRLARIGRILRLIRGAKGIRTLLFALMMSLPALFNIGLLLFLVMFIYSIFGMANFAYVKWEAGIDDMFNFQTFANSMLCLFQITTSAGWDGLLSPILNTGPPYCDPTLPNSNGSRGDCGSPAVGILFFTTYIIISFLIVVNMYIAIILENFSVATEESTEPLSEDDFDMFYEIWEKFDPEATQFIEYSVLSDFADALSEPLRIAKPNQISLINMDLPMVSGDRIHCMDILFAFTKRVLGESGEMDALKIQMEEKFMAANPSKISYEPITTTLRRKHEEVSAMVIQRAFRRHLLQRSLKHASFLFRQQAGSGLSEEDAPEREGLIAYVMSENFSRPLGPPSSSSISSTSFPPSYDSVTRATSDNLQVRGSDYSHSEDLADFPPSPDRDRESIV
sequence,measurement,setting,value
APWHLSSQYSRT [CTP],IC50 values,seven ion channels; seven ion channels,not calculable
same,inhibition/activation across all seven ion channels,seven ion channels; vs control substances,no inhibition/activation was observed; also recorded: did not inhibit the activation of any tested
same,antagonist action,OPRM1,no antagonist action
same,diastolic blood pressure,B6-wildtype mice,No significant difference; also recorded: no significant (ns) change
same,systolic blood pressure,B6-wildtype mice,No significant difference; also recorded: no significant (ns) change
same,Estimated IC50,HEK-Nav1.5 (Peak),"N/C (Not calculable, inhibition >25% was not observed.)"
